From patent publication US20250082702A1, “ANTICANCER COMPOSITION COMPRISING RECOMBINANT ADENOVIRUS EXPRESSING DEGRADATION FACTOR FOR EXTRACELLULAR MATRIX” (priority 2016, published 2025)

What was measured:
[1] = system: AsPC-1; test: MTT assay, RdB/IL-12/DCN with gemcitabine; assay type: cell-based, human; conditions: gemcitabine alone at 100 μg/ml
Protocol: (§1) For this purpose, human pancreatic cancer cell lines PANC-1, MIA PaCa-2, and AsPC-1 were infected with RdB/IL-12/DCN of the present invention at a MOI of 0.5 or 2, and treated together with gemcitabine (0.05, 0.2, 1, 2, 5, 20, or 100 μg/ml), and then the degree of apoptosis was observed through MTT assay.

[2] = system: MIA PaCa-2; test: MTT assay, RdB/IL-12/DCN with gemcitabine; assay type: cell-based, human; conditions: gemcitabine alone at 100 μg/ml
Protocol: as §1

[3] = system: PANC-1; test: MTT assay, RdB/IL-12/DCN with gemcitabine; assay type: cell-based, human; conditions: gemcitabine alone at 100 μg/ml
Protocol: as §1

[4] = system: MIA PaCa-2-Fluc; test: Orthotopic pancreatic cancer animal model, change in size of tumor (IVIS); assay type: in vivo, mouse; conditions: IVIS imaging; combination: week 1 and 2; RdB/IL-12/DCN 2×10^10 VP i.p. three times, gemcitabine 100 mg/kg twice weekly for 3 weeks
Protocol: In order to construct an orthotopic pancreatic cancer animal model, a human pancreatic cancer cell line MIA PaCa-2-Fluc was selected and used in the experiment. Tumor cells were injected into the mouse pancreas, and two weeks later, the production of tumors was confirmed through an IVIS imaging machine. Thereafter, RdB/IL-12/DCN was intraperitoneally administered three times at 2×10^10 VP/500 μL every two days, and gemcitabine was administered twice weekly at 100 mg/kg for a total of 3 weeks. Meanwhile, a PBS only administration group was used as a negative control. Before RdB/IL-12/DCN was administered, the size and photon values of tumors were confirmed using the IVIS imaging machine, and at week 1, 2, and 3 after the administration, the changes in size of tumors were quantitatively compared.

[5] = system: MIA PaCa-2-Fluc; test: Histological evaluation of orthotopic pancreatic tumors (H&E, PCNA, TUNEL, E1A); assay type: in vivo, mouse; conditions: orthotopic MIA PaCa-2-Fluc tumor tissue
Protocol: It was intended to histologically evaluate the anti-tumor effect of the aforementioned experiments. First, the formation of tumors was induced by injecting a human pancreatic cancer cell line MIA PaCa-2-Fluc into the mouse pancreas, and then PBS, gemcitabine, RdB/IL-12/DCN, or gemcitabine+RdB/IL-12/DCN was each administered thereto. Thereafter, hematoxylin-eosin (H & E) staining and PCNA immunohistological staining were performed after collecting the tumor tissues. Further, a TUNEL assay was performed in order to confirm the degree of apoptosis of tumor cells, and immunohistological staining using an antibody against an E1A protein of the adenovirus was performed in order to confirm whether the anti-tumor effect was caused by the replication of the adenovirus present in tumor tissues.

[6] = system: BxPC-3; test: Pancreatic cancer subcutaneous animal model; assay type: in vivo, mice; conditions: BxPC-3 subcutaneous; RdB/IL-12/RLX intratumoral, gemcitabine 10 mg/kg
Protocol: (§2) It was intended to verify the anti-tumor effect by the co-administration of RdB/IL-12/RLX and gemcitabine in a pancreatic cancer subcutaneous animal model. The formation of tumors was induced by injecting PANC-1, MIA PaCa-2, or BxPC-3 cells subcutaneously into mice, a change in size of tumors was observed while RdB/IL-12/RLX was administered alone or RdB/IL-12/RLX was administered (administered intratumorally) in combination with gemcitabine (10 mg/kg). Meanwhile, a PBS only administration group was used as a negative control.

[7] = system: MIA PaCa-2; test: Pancreatic cancer subcutaneous animal model; assay type: in vivo, mice; conditions: MIA PaCa-2 subcutaneous; RdB/IL-12/RLX intratumoral, gemcitabine 10 mg/kg
Protocol: as §2

[8] = system: PANC-1; test: Pancreatic cancer subcutaneous animal model; assay type: in vivo, mice; conditions: PANC-1 subcutaneous; RdB/IL-12/RLX intratumoral, gemcitabine 10 mg/kg
Protocol: as §2

[9] = system: MIA PaCa-2; test: Pancreatic cancer xenograft animal model, extracellular matrix and apoptosis; assay type: in vivo, mice; conditions: RdB/IL-12/RLX 2×10^6 pfu, gemcitabine 1.5 mg/kg
Protocol: In order to construct a pancreatic cancer xenograft animal model, 5×10^5 of MIA PaCa-2 were injected subcutaneously into mice, and then when the size of tumors reached 50 to 100 mm^3, a change in extracellular matrix and an apoptosis effect were observed while 2×10^6 pfu of RdB/IL-12/RLX were administered alone or administered in combination with 1.5 mg/kg of gemcitabine. During the co-administration, RdB/IL-12/RLX was intratumorally administered three times in total at an interval of 2 days, and gemcitabine was intraperitoneally administered once. Thereafter, immunohistological staining and hematoxylin-eosin (H & E) staining were performed, and in order to confirm the degree of apoptosis, a TUNEL assay and cleaved caspase 3 immunostaining were performed. Meanwhile, a PBS only administration group was used as a negative control.

[10] = system: B16-F10; test: Animal model with induced resistance to anticancer agent (taxol), RdB/IL-12/DCN; assay type: in vivo, C57BL/6 mice; conditions: day 16 (15 days after first taxol administration); taxol 10 mg/kg i.p., RdB/IL-12/DCN 5×10^5 VP, αPD-1 200 μg
Protocol: Under the conditions where the anti-tumor effect caused by an anticancer agent is insignificant due to the resistance to the anticancer agent, and the like, it was intended to verify an in vivo anti-tumor effect by the co-administration of RdB/IL-12/DCN and the immune checkpoint inhibitor (an anti PD-1 antibody; αPD-1). After a B16-F10 mouse melanoma cell line was injected (5×10^5 cells) subcutaneously into the flank of C57BL/6 mice, taxol (day 1, 2, and 3; 10 mg/kg) was injected intraperitoneally into the formed tumor (day 1, about 50 mm^3), and after RdB/IL-12/DCN was administered alone (day 3, 5, 7, and 9; 5×10^5 VP), αPD-1 was administered alone (day 4, 7, 8, and 10; 200 μg), or RdB/IL-12/DCN and αPD-1 were co-administered (under the same conditions, respectively), the growth of tumors was observed. Meanwhile, a PBS only administration group was used as a negative control.

SMILES | ability to kill the pancreatic cancer cell lines (MTT assay) [1] | ability to kill the pancreatic cancer cell lines (MTT assay) [2] | ability to kill the pancreatic cancer cell lines (MTT assay) [3] | change in size of tumors [4] | necrosis of cells in tumors (H & E staining) [5] | change in size of tumors [6] | change in size of tumors [7] | change in size of tumors [8] | necrosis or apoptosis of cells in tumors (H & E, TUNEL, cleaved caspase 3) [9] | size of tumors [10] [mm^3]
Nc1ccn([C@@H]2O[C@H](CO)[C@@H](O)C2(F)F)c(=O)n1 [gemcitabine] | at most 30% | at most 30% | at most 30% | sharp increases in size of tumors | hardly observed | sharp increase in size of tumors | sharp increase in size of tumors | sharp increase in size of tumors | almost hardly proceeded or was insignificant | 
CC(=O)O[C@H]1C(=O)[C@@]2(C)[C@H]([C@H](OC(=O)c3ccccc3)[C@]3(O)C[C@H](OC(=O)[C@H](O)[C@@H](NC(=O)c4ccccc4)c4ccccc4)C(C)=C1C3(C)C)[C@]1(OC(C)=O)CO[C@@H]1C[C@@H]2O [taxol] |  |  |  |  |  |  |  |  |  | 5394.5±288.2
